{
  "source": "patent EP2711366A1",
  "about": "“Cationic triphenylamine derivatives activable by visible and Infra Red light for inducing and imaging apoptosis in cancer cells” (Institut Curie, priority 2012, dated 2014)",
  "format_in_all_cases": "cell-based",
  "key": {"living MCF-7 cells": {"tested_on": "living MCF-7 cells", "test": "Cell death induced by two-photon excitation (multiphoton microscopy)", "conditions": "two-photon λex 860nm, irradiance 1.25W/cm^2", "procedure": "A similar set up was used for two-photon images except that the excitation source was a 80-MHz mode-locked Mai Tai® Ti:Sapphire tunable laser (720-920 nm, 100 fs laser pulse; Spectra Physics, Mountain View, California) tuned to 860 nm.\nLiving MCF-7 cells were treated with 2 µM of TP2Py for 2 hours, exposed to two-photon excitation and simultaneously observed by multiphoton microscopy [using- a pulsed IR laser source for excitation Mai Tai, Spectra Physics, λex = 860nm; irradiance, 1.25W/cm^2, emission slit setting: 560-720nm]."}, "MCF-7 cells": {"tested_on": "MCF-7 cells", "test": "FITC-conjugated Annexin V staining, flow cytometric analysis (apoptosis)", "conditions": "for HMFI population: 30 min illumination; for HMFI population (Annexin V positive, TP2Py positive): 2µM, 2 hours", "procedure": "MCF-7 cells were plated in 12-well plates (2.10^5 cells/well) and incubated with 2µM of TP2Py for 2h at 37°C. Under specific conditions (see Fig. 12), cells were further incubated with NAC (1mM) for 30 min, Bapta-AM (20µM) for 3h, or CsA (10µM) for 1h at 37°C. After a time illumination of either 30 or 60 min at […] (Mercury lamp (130W; 380-600nm) + excitation filter centered at 452nm (± 45nm)), cells were gently scraped and pooled with medium floating cells. Cells were individualized in PBS-EDTA (10mM) and stained as described by the manufacturer (Roche, Germany). Briefly, the cell pellet was re-suspended in 500µl Annexin V-HEPES solution (10 mM HEPES-NaOH, pH 7.4, 140mM NaCl, 5mM CaCl2) and incubated on ice for 30 min in the dark. Cells were then washed in ice-cold HEPES buffer before analysis. Fluorescence signals of fluorescently labelled (FITC) Annexin V and TP2Py were measured by a FACSCalibur flow cytometer (Becton-Dickinson, Sunnyvale, CA, USA) using FL1 and FL2 detectors, respectively.\nDifferent experiments are summarized below: • MCF-7 cells treated with 2µM TP2Py for 2 hours and then stained with FITC-conjugated Annexin V immediately (Fig.12A) without light exposure; • MCF-7 cells treated with 2µM TP2Py for 2 hours and then stained with FITC-conjugated Annexin V after a time illumination (Exc, 452 nm) of 30 min (Fig.12B); • MCF-7 cells treated with 2µM TP2Py for 2 hours and then stained with FITC-conjugated Annexin V after a time illumination (Exc, 452 nm) of 60 min (Fig.12C); • control MCF-7 cells treated with DMSO (1%) only and illuminated for 30 min before Annexin V staining (Fig.12D); • control MCF-7 cells treated with 1µg/mL actinomycin D (ActD), no illumination before Annexin V staining (Fig.12E); • control MCF-7 cells treated with camptothecin (CPT, 10µM)) (Fig.12F) for 2.5 hours, no illumination before Annexin V staining; • MCF-7 cells treated during 2 hours with 2µM TP2Py and 10µM cyclosporine A (CsA) and illuminated for 30 min before Annexin V staining (Fig.12G); • MCF-7 cells treated during 2 hours with 2µM TP2Py and 1 mM N-Acetyl cysteine (NAC) and illuminated for 30 min before Annexin V staining (Fig.12H); and • MCF-7 cells treated during 2 hours with 2µM TP2Py and 20µM Bapta-am (Fig.12I) and illuminated for 30 min before Annexin V staining.\nThe horizontal (FL1-H) and vertical (FL2-H) axes correspond to the fluorescence signal of Annexin V and TP2Py, respectively. The percentage of population with a high mean fluorescence signal is indicated in the corresponding quadrant (top right or bottom right in the presence or absence of TP2Py, respectively)."}, "[1]": {"tested_on": "PARP (poly-ADP ribose polymerase) cleavage in HeLa cells", "test": "PARP cleavage by Western blot and cell morphology after illumination", "conditions": "2 µM, 2h, 17 mW.cm^-2, 452 nm filter", "procedure": "HeLa cells were plated in 6-well plates (4.10^5 cells/well) and incubated with 2 µM TP2Py for 2h at 37°C. After varying illumination times (up to 90min) at 17 mW.cm^-2 (Mercury lamp (130W; 380-600nm) + excitation filter centered at 452 nm (± 45 nm)), cells were collected by scraping, washed once in ice-cold PBS, treated with lysis buffer (1% Nonidet P-40, 20 mM Tris pH 8.0, 137 mM NaCl, 10% glycerol (v/v)) supplemented with 1 mM phenyl-methylsulfonyl fluoride, 1 mM sodium orthovanadate and anti-protease cocktail (Complete, Boehringer Mannheim, Germany) for 20 min on ice and further centrifuged at 10000g for 10 min. Protein concentrations were determined using the bicinchoninic acid method (micro BCA, Pierce, USA). 40µg of detergent soluble proteins were separated by SDS-PAGE under reducing conditions followed by Western blotting. Membranes were first incubated overnight at 4°C with the rabbit primary polyclonal antibody anti-PARP (Cell Signaling Technology). Membranes were then probed with horseradish peroxidase-labelled anti-rabbit IgG (dilution, 1/2000) (Dakocytomation). Detection was based on a chemiluminescence detection system (GE Healthcare, Orsay, France). […]\nThe cleavage of PARP, a hallmark of apoptosis, was assessed by Western blot using an anti-PARP antibody that recognizes both the entire and cleaved PARP (Fig. 11)."}},
  "data": [
    {"molecule": "C[n+]1ccc(/C=C/c2ccc(N(c3ccccc3)c3ccc(/C=C/c4cc[n+](C)cc4)cc3)cc2)cc1", "note": "[TP2Py]", "values": [
      {"measurement": "start of re-localization into the nucleus after the first excitation", "setting": "living MCF-7 cells; 2 µM, 2 hours", "result": "5 to 15", "unit": "min"},
      {"measurement": "light dose", "setting": "living MCF-7 cells", "result": "≈ 300 J/cm^2"},
      {"measurement": "HMFI population", "setting": "MCF-7 cells; 2µM TP2Py with 10µM cyclosporine A (CsA)", "result": 13, "unit": "%"},
      {"measurement": "HMFI population", "setting": "MCF-7 cells; 2µM TP2Py with 20µM Bapta-am", "result": 19, "unit": "%"},
      {"measurement": "HMFI population", "setting": "MCF-7 cells; 2µM TP2Py with 1 mM N-Acetyl cysteine (NAC)", "result": 25, "unit": "%"},
      {"measurement": "HMFI population (Annexin V positive, TP2Py positive)", "setting": "MCF-7 cells; 30 min illumination (452 nm, 40 MW.cm^-2)", "result": 29, "unit": "%"},
      {"measurement": "HMFI population (Annexin V positive, TP2Py positive)", "setting": "MCF-7 cells; 60 min illumination", "result": 38, "unit": "%"},
      {"measurement": "HMFI population (Annexin V positive, TP2Py positive)", "setting": "MCF-7 cells; without light illumination", "result": 4.3, "unit": "%"},
      {"measurement": "illumination time after which PARP cleavage was detected", "setting": "[1]", "result": 60, "unit": "min"}
    ]}
  ]
}
